Values quoted from earlier work, collected in patent US20190117606A1, “COMPOSITIONS COMPRISING L-THEANINE, PROANTHOCYANIDIN/S AND A CATECHIN AND USES THEREOF” (priority 2016, published 2019).

Settings: in vivo

CCNC(=O)CC[C@H](N)C(=O)O [L-theanine, γ-glutamylethylamide]
Crossing of the blood-brain barrier: known to cross the blood-brain barrier | Time to peak concentrations after consumption: about one
